Laboratory results taken from patent US11412737B2, “Mixtures of beflubutamid or optically enriched forms thereof with a second herbicide” (FMC Corporation, priority 2016, dated 2022).

Legend:
[1] = system: Green foxtail (SETVI); test: post-emergence test, weed control; assay type: in vivo, Setaria viridis; conditions: post-emergent, 28 DAT, BFL at 187.5 g, combination of both
Procedure: (§1) Test compositions containing the test compounds were diluted with water to provide the appropriate test rate concentrations.
(§2) For post-emergence testing, seeds of each species for each rate of application of each herbicide solution were planted in 7.5 cm×7.5 cm plastic pots filled with potting soil. The seeds were germinated and the resulting plants were allowed to grow in a greenhouse until they reached a growth stage, such as height, suitable for testing. Treatments were applied using compressed air in a track spray chamber at 30 gallons/acre (280 L/ha) using a TeeJet 8001E nozzle at 40 psi (2.76 bars). Pots of post-emergent treated plants were returned to the greenhouse and not watered for 24 hours after treatment. Thereafter they were regularly watered and fertilized for the duration of the test.
(§3) The control of weeds was evaluated in each experimental test at 21 for wheat and 28 days after treatment (DAT) for all species. Data were analyzed using Minitab software at 95% confidence interval. The results, shown as an average of the replications, were compared with results observed in untreated control flats in the same tests. Percent control was determined by a method similar to the 0 to 100 rating system disclosed in “Research Methods in Weed Science,” 2nd ed., B. Truelove, Ed.; Southern Weed Science Society; Auburn University, Auburn, Ala., 1977. The rating system is as follows in Table 1.

[2] = system: Rice flatsedge (CYPIR); test: post-emergence test, weed control; assay type: in vivo; conditions: post-emergent, 28 DAT, height 1-2 cm, rate g ai/ha by row: r25 94, r26 125, r27 188, r28 125, r29 250, r30 94+125, r31 125+125, r32 188+125, r33 94+250, r34 125+250, r35 188+250
Procedure: as §1, §2, §3

[3] = system: Cheat grass (BROSE); test: post-emergence test, weed control; assay type: in vivo; conditions: post-emergent, 28 DAT, height 7 cm, rate g ai/ha by row: r7 94, r8 125, r9 188, r10 125, r11 250, r12 94+125, r13 125+125, r14 188+125, r15 94+250, r16 125+250, r17 188+250
Procedure: as §1, §2, §3

[4] = system: Common ragweed (AMBEL); test: post-emergence test, weed control; assay type: in vivo; conditions: post-emergent, 28 DAT, height 3-4 cm, rate g ai/ha by row: r7 94, r8 125, r9 188, r10 125, r11 250, r12 94+125, r13 125+125, r14 188+125, r15 94+250, r16 125+250, r17 188+250
Procedure: as §1, §2, §3

[5] = system: Shattercane (SOBIA); test: post-emergence test, weed control; assay type: in vivo; conditions: post-emergent, 28 DAT, height 8 cm; rate g ai/ha by row: r25 94, r26 125, r27 188, r28 125, r29 250, r30 94+125, r31 125+125, r32 188+125, r33 94+250, r34 125+250, r35 188+250
Procedure: as §1, §2, §3

[6] = system: Large crabgrass (DIGSA); test: post-emergence test, weed control; assay type: in vivo; conditions: post-emergent, 28 DAT; BFL at 188 g/ha, DCI at 125 g/ha, combination of both
Procedure: as §1, §2, §3

[7] = system: Redrice (ORYSA); test: post-emergence test, weed control; assay type: in vivo; conditions: post-emergent, 28 DAT; for percentage of weed control, ORYSA: height 8 cm, rate g ai/ha by row: r25 94, r26 125, r27 188, r28 125, r29 250, r30 94+125, r31 125+125, r32 188+125, r33 94+250, r34 125+250, r35 188+250
Procedure: as §1, §2, §3

[8] = system: Annual bluegrass (POAAN); test: post-emergence test, weed control; assay type: in vivo, Poa annua; conditions: post-emergent, 28 DAT, height 1-2 cm, rate g ai/ha by row: r7 94, r8 125, r9 188, r10 125, r11 250, r12 94+125, r13 125+125, r14 188+125, r15 94+250, r16 125+250, r17 188+250
Procedure: as §1, §2, §3

[9] = system: Littleseed canarygrass (PHAMI); test: post-emergence test, weed control; assay type: in vivo, Phalaris minor; conditions: post-emergent, 28 DAT, height 7-8 cm, rate g ai/ha by row: r25 94, r26 125, r27 188, r28 125, r29 250, r30 94+125, r31 125+125, r32 188+125, r33 94+250, r34 125+250, r35 188+250
Procedure: as §1, §2, §3

[10] = system: Common lambsquarters (CHEAL); test: pre-emergence test, weed control; assay type: in vivo, Chenopodium album; conditions: pre-emergent, 28 DAT
Procedure: as §1
For pre-emergence testing, four disposable fiber flats (6 inch by 10 inch) for each rate of application of each herbicide solution were filled with top soil, to which seeds of each species were planted in furrows made by a template pressed on the top of the soil. The furrows were covered with soil after planting the seed and were watered well before application of the test compounds.
Fiber flats designated for treatment were placed in a spray chamber having a static platform and a movable sprayer and the height of the spray nozzle was 10.5 inches above the soil level. Once the sprayer was calibrated using water for spray volume of 30 gallons per acre, flats were sprayed with sprayer at a speed to receive a coverage equivalent of 30 gallons per acre. The application rates are those shown in the Tables below for the individual herbicidal solutions and the herbicide compositions of this invention. The pre-emergence flats were immediately placed in the greenhouse and watered lightly after treatment. Thereafter they were regularly watered and fertilized for the duration of the test.
as §3

[11] = system: Wild oat (AVEFA); test: post-emergence test, weed control; assay type: in vivo, Avena fatua; conditions: post-emergent, 28 DAT; for percentage of weed control, AVEFA: height 11 cm, rate g ai/ha by row: r25 94, r26 125, r27 188, r28 125, r29 250, r30 94+125, r31 125+125, r32 188+125, r33 94+250, r34 125+250, r35 188+250; for control of wild oats (AVEFA): DCI at 250 g/ha
Procedure: as §1, §2, §3

[12] = BFL at 187.5 g, PYX at 90 g, combination of both

## CCC(Oc1ccc(F)c(C(F)(F)F)c1)C(=O)NCc1ccccc1 (racemic) [BFL, 2-[4-fluoro-3-(trifluoromethyl)phenoxy]-N-(phenylmethyl)butanamide]
[1]; PTX at 890 g
  control of green foxtail: 54%
[1]; PYX at 90 g
  control of green foxtail: 54%
[2]; 94 g ai/ha
  percentage of weed control, CYPIR: 0%
[2]; 188 g ai/ha
  percentage of weed control, CYPIR: 4%
[3]; 94 g ai/ha
  percentage of weed control, BROSE: 0%
[3]; 188 g ai/ha
  percentage of weed control, BROSE: 6%
[4]; 94 g ai/ha
  percentage of weed control, AMBEL: 5%
[4]; 125 g ai/ha
  percentage of weed control, AMBEL: 6%
[4]; 188 g ai/ha
  percentage of weed control, AMBEL: 12%
[5]
  percentage of weed control, SOBIA: 0%
[6]
  control of large crabgrass (DIGSA): 19%
[7]; 94 g ai/ha
  percentage of weed control, ORYSA: 46%
[7]; 125 g ai/ha
  percentage of weed control, ORYSA: 44%
[7]; 188 g ai/ha
  percentage of weed control, ORYSA: 28%
[7]; [12]
  control of red rice: 69%
[8]; 94 g ai/ha
  percentage of weed control, POAAN: 0%
[8]; 188 g ai/ha
  percentage of weed control, POAAN: 2%
[9]; 94 g ai/ha
  percentage of weed control, PHAMI: 0%
[9]; 188 g ai/ha
  percentage of weed control, PHAMI: 1%
[10]; BFL at 125 g/ha, DCI at 125 g/ha, combination of both
  control of lambsquarters (CHEAL): 42%
[10]; rate g ai/ha by row: r4 94, r5 50, r6 100, r7 52.5, r8 70, r9 94+52.5, r10 94+70, r11 50+52.5, r12 50+70, r13 100+52.5, r14 100+70
  percentage of weed control, CHEAL: 16%
[11]; 94 g ai/ha
  percentage of weed control, AVEFA: 0%
[11]; 188 g ai/ha
  percentage of weed control, AVEFA: 5%
[11]; BFL at 125 g/ha, combination of both
  control of wild oats (AVEFA): 0%
[11]; [12]
  control of wild oats: 15%
[11]; BFL at 188 g/ha, combination of both
  control of wild oats (AVEFA): 5%
